From US11136329B2, “JAK inhibitors” (Vimalan Biosciences, Inc., priority 2019, dated 2021)

Columns and labels:
Format in all cases: biochemical
JAK3 = JAK3 (Homo sapiens (Human), UniProt P52333); test: JAK/TYK2 assay (Kinase Glo luminescence), JAK3; conditions: 1.5 nM enzyme, 2 uM ATP, 4 uM pEY, 1 hr
Summary of the method: (§1)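 25° C., 1-2 h, pH 7.5 HEPES/MgCl2/DTT/Tween buffer. Readout: Kinase Glo luminescence; no-compound wells as positive control.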

TYK2 = TYK2 (Homo sapiens (Human), UniProt P29597); test: JAK/TYK2 assay (Kinase Glo luminescence), TYK2; conditions: 9 nM enzyme, 2 uM ATP, 30 uM IRS-1, 1 hr
Summary of the method: as §1

JAK2 = JAK2 (Homo sapiens (Human), UniProt O60674); test: JAK/TYK2 assay (Kinase Glo luminescence), JAK2; conditions: 0.8 nM enzyme, 2 uM ATP, 4 uM pEY, 1 hr
Summary of the method: as §1

JAK1 = JAK1 (Homo sapiens (Human), UniProt P23458); test: JAK/TYK2 assay (Kinase Glo luminescence), JAK1; conditions: 7.5 nM enzyme, 2 uM ATP, 30 uM IRS-1, 1 hr
Summary of the method: as §1

Sequence of JAK1 (P23458 whole entry, species assumed): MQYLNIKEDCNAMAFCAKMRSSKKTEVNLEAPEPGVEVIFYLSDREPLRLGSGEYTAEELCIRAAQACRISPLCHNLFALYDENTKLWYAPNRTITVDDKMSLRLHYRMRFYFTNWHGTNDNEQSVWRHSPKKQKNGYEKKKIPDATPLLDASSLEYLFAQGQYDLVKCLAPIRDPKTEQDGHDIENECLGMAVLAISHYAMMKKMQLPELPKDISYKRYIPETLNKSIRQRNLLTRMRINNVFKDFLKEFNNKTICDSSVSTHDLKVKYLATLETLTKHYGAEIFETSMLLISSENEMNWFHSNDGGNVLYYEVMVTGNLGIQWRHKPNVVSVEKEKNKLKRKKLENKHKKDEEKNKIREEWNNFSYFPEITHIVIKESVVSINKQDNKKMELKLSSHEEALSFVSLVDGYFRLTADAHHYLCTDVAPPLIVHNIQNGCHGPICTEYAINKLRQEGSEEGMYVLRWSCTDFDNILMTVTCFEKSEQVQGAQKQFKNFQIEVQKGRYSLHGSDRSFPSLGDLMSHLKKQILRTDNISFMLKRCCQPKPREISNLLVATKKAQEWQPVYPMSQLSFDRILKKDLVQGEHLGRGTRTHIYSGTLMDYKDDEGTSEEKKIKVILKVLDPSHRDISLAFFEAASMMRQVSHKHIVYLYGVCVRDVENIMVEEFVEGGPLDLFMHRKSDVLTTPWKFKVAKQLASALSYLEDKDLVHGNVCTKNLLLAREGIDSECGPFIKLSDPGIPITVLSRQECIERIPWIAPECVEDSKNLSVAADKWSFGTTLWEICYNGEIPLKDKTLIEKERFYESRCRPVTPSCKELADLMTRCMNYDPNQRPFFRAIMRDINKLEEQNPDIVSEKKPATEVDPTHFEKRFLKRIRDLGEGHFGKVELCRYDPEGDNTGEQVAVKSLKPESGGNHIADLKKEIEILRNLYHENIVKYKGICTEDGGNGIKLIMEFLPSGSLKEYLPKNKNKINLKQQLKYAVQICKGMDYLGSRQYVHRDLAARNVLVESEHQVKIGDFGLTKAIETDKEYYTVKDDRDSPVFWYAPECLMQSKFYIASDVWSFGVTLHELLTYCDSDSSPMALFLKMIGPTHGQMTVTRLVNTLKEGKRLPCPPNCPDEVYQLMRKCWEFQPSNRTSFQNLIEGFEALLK
Sequence of JAK3 (P52333 whole entry, species assumed): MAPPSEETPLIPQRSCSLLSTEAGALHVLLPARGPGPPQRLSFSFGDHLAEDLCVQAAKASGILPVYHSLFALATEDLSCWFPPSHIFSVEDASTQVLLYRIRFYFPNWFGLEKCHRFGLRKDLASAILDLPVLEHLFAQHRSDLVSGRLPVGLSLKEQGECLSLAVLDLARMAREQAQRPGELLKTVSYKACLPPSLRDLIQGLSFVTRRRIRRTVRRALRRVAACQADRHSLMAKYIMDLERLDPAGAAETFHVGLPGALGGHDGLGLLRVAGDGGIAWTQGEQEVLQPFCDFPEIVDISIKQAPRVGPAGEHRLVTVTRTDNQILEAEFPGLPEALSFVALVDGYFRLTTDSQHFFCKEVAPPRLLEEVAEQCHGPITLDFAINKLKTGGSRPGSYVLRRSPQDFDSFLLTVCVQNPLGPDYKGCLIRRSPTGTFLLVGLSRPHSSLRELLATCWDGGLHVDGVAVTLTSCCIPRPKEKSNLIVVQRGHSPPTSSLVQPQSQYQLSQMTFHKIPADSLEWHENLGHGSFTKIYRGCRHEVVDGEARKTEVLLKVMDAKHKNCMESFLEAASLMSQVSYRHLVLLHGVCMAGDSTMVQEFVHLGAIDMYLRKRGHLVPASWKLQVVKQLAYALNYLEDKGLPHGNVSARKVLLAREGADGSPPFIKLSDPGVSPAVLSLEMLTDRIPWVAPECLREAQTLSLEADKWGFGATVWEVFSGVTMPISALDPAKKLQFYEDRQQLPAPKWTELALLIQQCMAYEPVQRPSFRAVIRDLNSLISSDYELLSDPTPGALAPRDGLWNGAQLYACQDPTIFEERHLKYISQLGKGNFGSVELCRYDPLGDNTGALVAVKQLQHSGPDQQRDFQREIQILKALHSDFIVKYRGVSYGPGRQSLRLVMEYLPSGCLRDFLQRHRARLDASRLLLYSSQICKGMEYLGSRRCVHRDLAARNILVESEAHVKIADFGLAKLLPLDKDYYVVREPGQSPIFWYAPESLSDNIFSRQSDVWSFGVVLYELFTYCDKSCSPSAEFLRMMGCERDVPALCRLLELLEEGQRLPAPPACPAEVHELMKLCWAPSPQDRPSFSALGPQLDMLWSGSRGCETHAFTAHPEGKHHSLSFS
Sequence of JAK2 (O60674 whole entry, species assumed): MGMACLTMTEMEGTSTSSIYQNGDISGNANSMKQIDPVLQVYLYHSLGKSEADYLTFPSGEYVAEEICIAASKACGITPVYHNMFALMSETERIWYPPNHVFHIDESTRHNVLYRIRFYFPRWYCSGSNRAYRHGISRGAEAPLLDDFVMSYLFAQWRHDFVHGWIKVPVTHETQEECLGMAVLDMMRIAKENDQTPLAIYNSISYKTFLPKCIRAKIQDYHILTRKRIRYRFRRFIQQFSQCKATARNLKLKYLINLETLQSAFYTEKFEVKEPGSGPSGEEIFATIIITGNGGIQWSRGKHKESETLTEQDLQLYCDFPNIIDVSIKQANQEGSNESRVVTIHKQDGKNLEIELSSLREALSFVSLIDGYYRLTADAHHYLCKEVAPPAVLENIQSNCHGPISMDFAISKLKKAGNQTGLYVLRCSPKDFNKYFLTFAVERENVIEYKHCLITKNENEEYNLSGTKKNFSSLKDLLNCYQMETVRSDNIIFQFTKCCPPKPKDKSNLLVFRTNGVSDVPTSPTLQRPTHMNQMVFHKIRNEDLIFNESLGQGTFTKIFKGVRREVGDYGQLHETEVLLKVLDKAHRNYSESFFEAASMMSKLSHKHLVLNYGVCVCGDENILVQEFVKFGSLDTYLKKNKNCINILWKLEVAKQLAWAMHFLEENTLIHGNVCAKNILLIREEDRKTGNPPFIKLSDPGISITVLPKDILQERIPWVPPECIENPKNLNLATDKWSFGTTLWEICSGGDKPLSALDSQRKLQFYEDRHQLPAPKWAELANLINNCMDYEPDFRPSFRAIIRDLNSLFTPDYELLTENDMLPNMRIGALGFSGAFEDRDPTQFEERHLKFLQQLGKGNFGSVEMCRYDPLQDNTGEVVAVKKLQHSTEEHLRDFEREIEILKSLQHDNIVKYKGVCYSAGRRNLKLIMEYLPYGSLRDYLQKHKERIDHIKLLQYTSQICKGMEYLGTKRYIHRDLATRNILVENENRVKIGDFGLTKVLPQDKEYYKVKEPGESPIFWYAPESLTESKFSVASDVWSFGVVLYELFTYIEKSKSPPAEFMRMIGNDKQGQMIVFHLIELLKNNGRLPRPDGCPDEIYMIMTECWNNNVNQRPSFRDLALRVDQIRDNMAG
Sequence of TYK2 (P29597 whole entry, species assumed): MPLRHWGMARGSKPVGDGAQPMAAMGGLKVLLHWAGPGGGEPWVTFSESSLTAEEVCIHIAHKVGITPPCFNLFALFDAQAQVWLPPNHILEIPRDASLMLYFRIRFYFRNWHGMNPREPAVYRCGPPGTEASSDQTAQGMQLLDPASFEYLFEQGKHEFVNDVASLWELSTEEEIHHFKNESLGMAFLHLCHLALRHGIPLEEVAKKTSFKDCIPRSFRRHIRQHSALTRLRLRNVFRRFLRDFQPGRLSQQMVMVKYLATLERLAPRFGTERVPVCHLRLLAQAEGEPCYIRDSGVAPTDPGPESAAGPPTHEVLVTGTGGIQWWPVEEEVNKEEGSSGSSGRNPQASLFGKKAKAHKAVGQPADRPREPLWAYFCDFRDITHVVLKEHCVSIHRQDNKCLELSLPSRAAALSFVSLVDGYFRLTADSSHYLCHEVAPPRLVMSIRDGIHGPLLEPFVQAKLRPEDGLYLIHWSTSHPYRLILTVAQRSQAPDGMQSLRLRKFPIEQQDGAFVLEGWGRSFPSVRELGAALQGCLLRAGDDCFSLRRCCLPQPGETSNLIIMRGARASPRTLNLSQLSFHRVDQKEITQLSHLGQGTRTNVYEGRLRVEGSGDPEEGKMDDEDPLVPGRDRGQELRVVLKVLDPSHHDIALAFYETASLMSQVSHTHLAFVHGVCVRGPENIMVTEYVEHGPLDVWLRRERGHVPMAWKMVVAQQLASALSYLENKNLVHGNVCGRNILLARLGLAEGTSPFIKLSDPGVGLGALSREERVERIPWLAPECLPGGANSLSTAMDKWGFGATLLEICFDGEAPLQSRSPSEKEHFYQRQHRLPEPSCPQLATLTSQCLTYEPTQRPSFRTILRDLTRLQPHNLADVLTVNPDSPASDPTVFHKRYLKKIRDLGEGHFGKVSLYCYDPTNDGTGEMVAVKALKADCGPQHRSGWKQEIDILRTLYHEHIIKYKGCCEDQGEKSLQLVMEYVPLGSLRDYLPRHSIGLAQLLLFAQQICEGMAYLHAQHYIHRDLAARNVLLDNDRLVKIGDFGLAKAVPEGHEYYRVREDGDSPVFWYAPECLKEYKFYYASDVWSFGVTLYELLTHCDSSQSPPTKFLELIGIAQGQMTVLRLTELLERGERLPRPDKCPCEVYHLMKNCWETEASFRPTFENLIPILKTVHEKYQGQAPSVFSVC

Compound | IC50 (JAK3) [nM] | IC50 (TYK2) [nM] | IC50 (JAK2) [nM] | IC50 (JAK1) [nM]
O=C(O)CCn1cc(Nc2ncc3ccn(C[C@H]4CC[C@H](O)CC4)c3n2)cn1 [Compound 117, 3-(4-((7-(((1r,4r)-4-hydroxycyclohexyl)methyl)-7H-pyrrolo[2,3-d]pyrimidin-2-yl)amino)-1H-pyrazol-1-yl)propanoic acid] | < 100 | < 100 | < 100 | < 100
CCOC(=O)C(C)n1cc(Nc2ncc3ccn(C[C@@H](CC)C(C)C)c3n2)cn1 (stereo partly drawn) [Compound 118, ethyl 2-(4-((7-((S)-2-ethyl-3-methylbutyl)-7H-pyrrolo[2,3-d]pyrimidin-2-yl)amino)-1H-pyrazol-1-yl)propanoate] | < 100 | < 100 | < 100 | < 100
CCOC(=O)CCn1cc(Nc2ncc3ccn(C[C@@H](CC)C(C)C)c3n2)cn1 [Compound 119, ethyl (S)-3-(4-((7-(2-ethyl-3-methylbutyl)-7H-pyrrolo[2,3-d]pyrimidin-2-yl)amino)-1H-pyrazol-1-yl)propanoate] | < 100 | < 100 | < 100 | < 100
CCOC(=O)C(C)n1cc(Nc2ncc3ccn(C[C@H]4CC[C@H](O)CC4)c3n2)cn1 (stereo partly shown) [Compound 120, ethyl 2-(4-((7-(((1r,4r)-4-hydroxycyclohexyl)methyl)-7H-pyrrolo[2,3-d]pyrimidin-2-yl)amino)-1H-pyrazol-1-yl)propanoate] | < 100 | < 100 | < 100 | < 100
CCOC(=O)CCn1cc(Nc2ncc3ccn(C[C@H]4CC[C@H](O)CC4)c3n2)cn1 [Compound 121, ethyl 3-(4-((7-(((1r,4r)-4-hydroxycyclohexyl)methyl)-7H-pyrrolo[2,3-d]pyrimidin-2-yl)amino)-1H-pyrazol-1-yl)propanoate] | < 100 | < 100 | < 100 | < 100
CC(C)OC(=O)Cn1cc(Nc2ncc3ccn(C[C@H]4CC[C@H](O)CC4)c3n2)cn1 [Compound 122, isopropyl 2-(4-((7-(((1r,4r)-4-hydroxycyclohexyl)methyl)-7H-pyrrolo[2,3-d]pyrimidin-2-yl)amino)-1H-pyrazol-1-yl)acetate] | < 100 | < 100 | < 100 | < 100
CCOC(=O)Cn1cc(Nc2ncc3ccn(C[C@H]4CC[C@H](N)CC4)c3n2)cn1 [Compound 127, ethyl 2-(4-((7-(((1r,4r)-4-aminocyclohexyl)methyl)-7H-pyrrolo[2,3-d]pyrimidin-2-yl)amino)-1H-pyrazol-1-yl)acetate] | < 100 | < 100 | < 100 | < 100
CCOC(=O)Cn1cc(Nc2ncc3ccn(C[C@H]4CC[C@@H](OC)CC4)c3n2)cn1 [Compound 128, ethyl 2-(4-((7-(((1s,4s)-4-methoxycyclohexyl)methyl)-7H-pyrrolo[2,3-d]pyrimidin-2-yl)amino)-1H-pyrazol-1-yl)acetate] | 100 to 1000 | 100 to 1000 | 100 to 1000 | 1000 to 10000
CCOC(=O)Cn1cc(Nc2ncc3ccn(C[C@H]4CC[C@H](OC)CC4)c3n2)cn1 [Compound 129, ethyl 2-(4-((7-(((1r,4r)-4-methoxycyclohexyl)methyl)-7H-pyrrolo[2,3-d]pyrimidin-2-yl)amino)-1H-pyrazol-1-yl)acetate] | < 100 | < 100 | < 100 | 100 to 1000
CCOC(=O)Cn1cc(Nc2ncc3ccn(C[C@H]4CCC[C@@H](OC)C4)c3n2)cn1 [Compound 130, ethyl 2-(4-((7-(((1S,3R)-3-methoxycyclohexyl)methyl)-7H-pyrrolo[2,3-d]pyrimidin-2-yl)amino)-1H-pyrazol-1-yl)acetate] | < 100 | < 100 | < 100 | < 100
CCOC(=O)Cn1cc(Nc2ncc3ccn(C[C@@H]4CCC[C@@H](OC)C4)c3n2)cn1 [Compound 131, ethyl 2-(4-((7-(((1R,3R)-3-methoxycyclohexyl)methyl)-7H-pyrrolo[2,3-d]pyrimidin-2-yl)amino)-1H-pyrazol-1-yl)acetate] | < 100 | < 100 | < 100 | 100 to 1000
CC[C@@H](Cn1ccc2cnc(Nc3cnn(CC(=O)OC(C)C)c3)nc21)C(C)C [Compound 132, isopropyl (R)-2-(4-((7-(2-ethyl-3-methylbutyl)-7H-pyrrolo[2,3-d]pyrimidin-2-yl)amino)-1H-pyrazol-1-yl)acetate] | < 100 | < 100 | < 100 | < 100
CCOC(=O)Cn1cc(Nc2ncc3ccn(C[C@H](CC)C(C)C)c3n2)cn1 [Compound 133, ethyl (R)-2-(4-((7-(2-ethyl-3-methylbutyl)-7H-pyrrolo[2,3-d]pyrimidin-2-yl)amino)-1H-pyrazol-1-yl)acetate] | < 100 | < 100 | < 100 | < 100
CC[C@H](Cn1ccc2cnc(Nc3cnn(CC(=O)OC(C)C)c3)nc21)C(C)C [Compound 134, isopropyl (S)-2-(4-((7-(2-ethyl-3-methylbutyl)-7H-pyrrolo[2,3-d]pyrimidin-2-yl)amino)-1H-pyrazol-1-yl)acetate] | < 100 | < 100 | < 100 | < 100
CCOC(=O)Cn1cc(Nc2ncc3ccn(C[C@@H](CC)C(C)C)c3n2)cn1 [Compound 135, ethyl (S)-2-(4-((7-(2-ethyl-3-methylbutyl)-7H-pyrrolo[2,3-d]pyrimidin-2-yl)amino)-1H-pyrazol-1-yl)acetate] | < 100 | < 100 | < 100 | < 100
CC[C@H](Cn1ccc2cnc(Nc3cnn(C(CCO)C(=O)O)c3)nc21)C(C)C (stereo partly drawn) [Compound 136, 2-(4-((7-((S)-2-ethyl-3-methylbutyl)-7H-pyrrolo[2,3-d]pyrimidin-2-yl)amino)-1H-pyrazol-1-yl)-4-hydroxybutanoic acid] | < 100 | < 100 | < 100 | < 100
CCC(Cn1ccc2cnc(Nc3cnn(C(=O)OC(C)(C)C)c3)nc21)C(C)C (stereo not shown) [Compound 137, tert-butyl 4-((7-(2-ethyl-3-methylbutyl)-7H-pyrrolo[2,3-d]pyrimidin-2-yl)amino)-1H-pyrazole-1-carboxylate] | < 100 | < 100 | < 100 | < 100
CC[C@H](Cn1ccc2cnc(Nc3cnn(CC(=O)O[C@H]4CCN(C)C4)c3)nc21)C(C)C [Compound 138, (S)-1-methylpyrrolidin-3-yl 2-(4-((7-((S)-2-ethyl-3-methylbutyl)-7H-pyrrolo[2,3-d]pyrimidin-2-yl)amino)-1H-pyrazol-1-yl)acetate] | < 100 | < 100 | < 100 | < 100
CC[C@H](Cn1ccc2cnc(Nc3cnn(CC(=O)O[C@@H]4CCN(C)C4)c3)nc21)C(C)C [Compound 139, (R)-1-methylpyrrolidin-3-yl 2-(4-((7-((S)-2-ethyl-3-methylbutyl)-7H-pyrrolo[2,3-d]pyrimidin-2-yl)amino)-1H-pyrazol-1-yl)acetate] | < 100 | < 100 | < 100 | < 100
CC[C@H](Cn1ccc2cnc(Nc3cnn(CC(=O)OC4COC4)c3)nc21)C(C)C [Compound 140, oxetan-3-yl (S)-2-(4-((7-(2-ethyl-3-methylbutyl)-7H-pyrrolo[2,3-d]pyrimidin-2-yl)amino)-1H-pyrazol-1-yl)acetate] | < 100 | < 100 | < 100 | < 100
CC[C@H](Cn1ccc2cnc(Nc3cnn(CC(=O)OCC4COC4)c3)nc21)C(C)C [Compound 141, oxetan-3-ylmethyl (S)-2-(4-((7-(2-ethyl-3-methylbutyl)-7H-pyrrolo[2,3-d]pyrimidin-2-yl)amino)-1H-pyrazol-1-yl)acetate] | < 100 | < 100 | < 100 | < 100
CCC(CC)Cn1ccc2cnc(Nc3cnn(C4CCOC4=O)c3)nc21 (stereo not shown) [Compound 142, 3-(4-((7-(2-ethylbutyl)-7H-pyrrolo[2,3-d]pyrimidin-2-yl)amino)-1H-pyrazol-1-yl)dihydrofuran-2(3H)-one] | < 100 | < 100 | < 100 | < 100
CC[C@H](Cn1ccc2cnc(Nc3cnn(C4CC(C)(C)OC4=O)c3)nc21)C(C)C (stereo partly drawn) [Compound 144, 3-(4-((7-((S)-2-ethyl-3-methylbutyl)-7H-pyrrolo[2,3-d]pyrimidin-2-yl)amino)-1H-pyrazol-1-yl)-5,5-dimethyldihydrofuran-2(3H)-one] | < 100 | < 100 | < 100 | < 100
CN1CC[C@@H](OC(=O)Cn2cc(Nc3ncc4ccn(C[C@H]5CC[C@H](O)CC5)c4n3)cn2)C1 [Compound 146, (R)-1-methylpyrrolidin-3-yl 2-(4-((7-(((1r,4r)-4-hydroxycyclohexyl)methyl)-7H-pyrrolo[2,3-d]pyrimidin-2-yl)amino)-1H-pyrazol-1-yl)acetate] | < 100 | < 100 | < 100 | < 100
CC[C@H](Cn1ccc2cnc(Nc3cnn(C(CC(C)(C)O)C(=O)O)c3)nc21)C(C)C (stereo partly drawn) [Compound 147, 2-(4-((7-((S)-2-ethyl-3-methylbutyl)-7H-pyrrolo[2,3-d]pyrimidin-2-yl)amino)-1H-pyrazol-1-yl)-4-hydroxy-4-methylpentanoic acid] | < 100 | < 100 | < 100 | < 100
